Test results: publication PMC12019583 (Journal of Neurochemistry, 2025)
Values joined by “and” are separate entries in the source; they are usually repeats but may differ in a detail not shown here. Identical values can stand only once. Like-named read-outs stand apart in the source and are kept apart here. One block for each compound: values may come before it.

Legend:
[1] = target: T1, human SERT (Homo sapiens, UniProt P31645); test: Whole-cell patch-clamp recordings of 5-HT-induced currents in HEK293 cells expressing human SERT; assay type: cell-based; conditions: for effect on serotonin-induced inwardly directed current: 10 μM, 5-HT 10 μM
Protocol: Whole‐cell patch‐clamp recordings were performed as recently described (Niello et al. [2023]). HEK293 cells stably expressing wild‐type GFP‐tagged human SERT were seeded at low density on poly‐D‐lysine‐coated dishes. Twenty hours after seeding, these cells were subjected to patch‐clamp recordings in the whole‐cell configuration. […] The internal solution in the patch pipette contained 133 mM potassium gluconate (CH2OH(CHOH)4COOK), 5.9 mM NaCl, 1 mM CaCl2, 0.7 mM MgCl2, 10 mM HEPES, 10 mM EGTA (pH adjusted to 7.2 with KOH). Drugs were applied using a 4‐tube ALA perfusion manifold (NPI Electronic GmbH, Germany) and a DAD‐12 superfusion system (Adams & List, Westbury, NY, USA) allowing for complete solution exchange around the cells within 100 ms. Currents were recorded via an Axopatch 200B amplifier (MDS Analytical Technologies, Sunnyvale, California) and analyzed using Clampfit 10.2 software. Passive holding currents were subtracted, and the traces were filtered using a 100 Hz digital Gaussian low‐pass filter.
(§1) The symbols represent three to four experiments performed in triplicate on different days, the error bars denote standard deviation. The red curves indicate the conditions promoting the optical switching (at a wavelength of 365 nm), the black curves indicate standard illumination. […] The rate of current recovery upon removal of (Z)‐9 from the bath solution (i.e., k off) was estimated by a fit of a monoexponential function to the current trace (see solid red line). […] Panel d: Viability assay employing trypan blue. […] PAR = paroxetine.

[2] = target: T1, human SERT; test: Uptake inhibition of [3H]5-HT in HEK293 cells stably expressing YhSERT; assay type: cell-based; conditions: for IC50: [3H]5-HT uptake, read-out: SERT IC50 ± SD
Protocol: (§2) The cells were cultured in a humidified atmosphere (37°C, 5% CO2) on standard plastic culture ware. To maintain the selection pressure for the stable cell lines, 150 units/mL Geneticin was added. Cells were typically not passaged over 25 times.
(§3) After 10 min, the preincubation solution was replaced by 0.05 mL/well KHB still containing the substance of interest and tritiated substrate additionally (50 nM [^3H]MPP^+ for the YhDAT; 100 nM [^3H]5HT for the YhSERT; 30 nM [^3H]GABA for the YhGAT1, hGAT3 and YrGAT1 and 20 nM [^3H]MPP^+ for the hNET) maintaining UV light treatment/no additional light treatment. Substrate uptake was stopped after 1 min (for [^3H]5HT) or 3 min (for [^3H]GABA and [^3H]MPP^+), respectively, by exchange of the substrate‐containing buffer with 0.2 mL/well ice‐cold KHB. The KHB was aspirated immediately, and the cells were lysed in 0.2 mL 1% SDS, transferred to 6‐mL scintillation vials, and assayed for [^3H] content by liquid scintillation counting.
(§4) Data from uptake experiments were subjected to non‐linear, least squares curve fitting to equations for a rectangular hyperbola using a Marquardt–Levenberg algorithm (GraphPad Prism v.9).

[3] = target: hNET (Homo sapiens, UniProt P23975); test: Uptake inhibition of [3H]MPP+ in HEK293 cells stably expressing hNET; assay type: cell-based; conditions: for loss in affinity at NET in comparison with paroxetine (factor): basal light; for reduction in IC50 by optical switching at NET: basal vs 365 nm; for IC50: [3H]MPP+ uptake, read-out: NET IC50 ± SD
Protocol: as §2, §3, §4

[4] = target: human DAT (Homo sapiens, UniProt Q01959); test: Uptake inhibition of [3H]MPP+ in HEK293 cells stably expressing YhDAT; assay type: cell-based; conditions: for loss in affinity at DAT in comparison with paroxetine (factor): basal light; for effect of optical switching on inhibitory potency at DAT: basal vs 365 nm; for IC50: [3H]MPP+ uptake, read-out: DAT IC50 ± SD
Protocol: as §2, §3, §4

[5] = target: T2, rat GAT1 (Rattus norvegicus, UniProt P23978); test: Uptake inhibition of [3H]GABA in HEK293 cells expressing YrGAT1; assay type: cell-based; conditions: for IC50: [3H]GABA uptake, read-out: rGAT IC50 ± SD
T2 construct: expressed in transfected cells
Protocol: as §2, §3, §4

[6] = target: T3, human GAT1 (Homo sapiens, UniProt P30531); test: Uptake inhibition of [3H]GABA in HEK293 cells expressing YhGAT1; assay type: cell-based; conditions: for IC50: [3H]GABA uptake, read-out: hGAT1 IC50 ± SD
T3 construct: expressed in transfected cells; host or cells: HEK293
Protocol: as §2, §3, §4

[7] = target: T4, human GAT3 (Homo sapiens, UniProt P48066); test: Uptake inhibition of [3H]GABA in HEK293 cells expressing hGAT3; assay type: cell-based; conditions: for IC50: [3H]GABA uptake, read-out: hGAT3 IC50 ± SD
T4 construct: expressed in transfected cells; host or cells: HEK293
T4 sequence (P48066 1-632): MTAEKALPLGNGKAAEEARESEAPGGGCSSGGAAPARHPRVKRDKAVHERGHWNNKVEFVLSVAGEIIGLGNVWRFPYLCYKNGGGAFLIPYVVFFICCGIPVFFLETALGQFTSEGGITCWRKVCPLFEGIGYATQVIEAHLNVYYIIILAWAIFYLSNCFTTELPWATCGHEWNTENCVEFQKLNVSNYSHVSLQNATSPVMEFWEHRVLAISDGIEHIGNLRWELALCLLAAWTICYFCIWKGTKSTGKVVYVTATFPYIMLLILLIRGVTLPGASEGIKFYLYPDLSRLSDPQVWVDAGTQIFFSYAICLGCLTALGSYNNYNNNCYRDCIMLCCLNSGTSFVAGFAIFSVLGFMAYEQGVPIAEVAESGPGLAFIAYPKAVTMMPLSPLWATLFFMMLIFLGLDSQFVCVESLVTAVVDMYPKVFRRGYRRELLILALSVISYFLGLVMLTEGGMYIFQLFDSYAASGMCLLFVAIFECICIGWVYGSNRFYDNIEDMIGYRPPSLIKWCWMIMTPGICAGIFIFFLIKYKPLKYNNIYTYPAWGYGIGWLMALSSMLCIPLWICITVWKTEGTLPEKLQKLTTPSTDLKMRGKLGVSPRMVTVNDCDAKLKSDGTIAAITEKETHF
Protocol: as §2, §3, §4

[8] = test system: HEK293 cells; test: Viability assay employing trypan blue; assay type: cell-based, human; conditions: dose-dependent, up to high concentrations, DMSO positive control
Description: as §1

[9] = UHPLC-TOF-MS quantification of (E)/(Z) isomer content in photostationary state; assay type: physicochemical; conditions: after irradiation 365 nm 30 s; 10 μM; several solvents (DMSO and aqueous)
Protocol: Additionally, quantification measurements with UHPLC‐TOF‐MS were conducted to determine the efficiency of the (E) to (Z) isomerization of azo‐paroxetine. […] Moreover, biological uptake inhibition assay conditions were mimicked during the switching experiments by choosing respective solvents and sample concentrations. Samples representing the dark state were taken before irradiation, samples representing the (Z)‐state were obtained after irradiation with […] (intensity 600 mW/cm^2 10 mm focusing lens, λ 365 nm) for 30 s. […] Bandara and Burdette [2012]). […] Switching concentration 10 μM, concentration in UHPLC‐TOF‐MS sample 1 μM, UHPLC‐TOF‐MS sample preparation with water/acetonitrile 90/10.

[10] = Thermal (Z)/(E) isomerization half-life by UV/Vis; assay type: physicochemical; conditions: (Z)-isomer; 50 μM in dry DMSO, 23 °C; read-out: half-life time of thermal (Z)/(E) isomerization (converted)
Protocol: The rough experimental half-life time of the ( Z)-isomer of compound 9 was determined on a UV-1800 UV/Vis spectrophotometer from Shimadzu at 23 °C. A 50 μM sample of the compound in dry DMSO was irradiated with 365 nm for 5 seconds using the respective OmniCure® LED head at 100% power. Once the highest possible (Z)-isomer content was reached, the absorption at 331 nm, the ( E)-isomer’s absorption maximum l max, was regularly measured over the course of 12 hours. […]
of the thermal ( Z)/(E) isomerization.
A mathematical fitting function was used to linearize the obtained absorption data over time according to Equation S1.
AAllllllllllllllllllll = ln (AAmmllmm − AAtt )
Equation S1. Linear fit used for absorption AA .
The linearized absorption value gained by equation S1 was plotted over time and a linear fit function was applied. The obtained fit function gave the rate constant k as its slope value.
Next, the half- life time was calculated according to Equation S2. The resulting graph is shown […]
Equation S2. Calculation of half-life ττ1/2 time from rate constant kk .
This method of thermal half- life time determination wa s sufficiently precise for the […]
been shown (Singer et al, 2023) to yield similar results as compiling an Eyring plot for half-life time determination without the compound relax ing back to nearly 100% (E)-isomer.
Graph S1. […]

[11] = target: NET; set-up: method as in Kristensen et al. [2011]; Owens et al. [2001]; conditions: ref Kristensen et al. [2011]; Owens et al. [2001]; cited from earlier work

Chain of hNET (P23975 whole entry): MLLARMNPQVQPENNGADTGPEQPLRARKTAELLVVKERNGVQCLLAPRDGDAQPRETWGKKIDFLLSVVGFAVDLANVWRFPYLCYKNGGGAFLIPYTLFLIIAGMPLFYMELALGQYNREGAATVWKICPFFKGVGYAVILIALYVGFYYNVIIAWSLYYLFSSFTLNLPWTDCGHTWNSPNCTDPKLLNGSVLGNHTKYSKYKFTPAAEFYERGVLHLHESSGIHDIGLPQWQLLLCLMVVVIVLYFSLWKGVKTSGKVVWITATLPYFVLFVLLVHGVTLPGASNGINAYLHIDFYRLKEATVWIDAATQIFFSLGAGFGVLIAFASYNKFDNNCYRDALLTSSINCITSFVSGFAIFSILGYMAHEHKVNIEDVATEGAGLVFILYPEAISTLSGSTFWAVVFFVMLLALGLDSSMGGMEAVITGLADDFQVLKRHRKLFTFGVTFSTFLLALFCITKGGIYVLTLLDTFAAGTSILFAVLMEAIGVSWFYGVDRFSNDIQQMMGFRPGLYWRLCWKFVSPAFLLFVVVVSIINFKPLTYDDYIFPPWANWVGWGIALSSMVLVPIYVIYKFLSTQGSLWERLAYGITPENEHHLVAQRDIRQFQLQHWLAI
Chain of human DAT (Q01959 whole entry): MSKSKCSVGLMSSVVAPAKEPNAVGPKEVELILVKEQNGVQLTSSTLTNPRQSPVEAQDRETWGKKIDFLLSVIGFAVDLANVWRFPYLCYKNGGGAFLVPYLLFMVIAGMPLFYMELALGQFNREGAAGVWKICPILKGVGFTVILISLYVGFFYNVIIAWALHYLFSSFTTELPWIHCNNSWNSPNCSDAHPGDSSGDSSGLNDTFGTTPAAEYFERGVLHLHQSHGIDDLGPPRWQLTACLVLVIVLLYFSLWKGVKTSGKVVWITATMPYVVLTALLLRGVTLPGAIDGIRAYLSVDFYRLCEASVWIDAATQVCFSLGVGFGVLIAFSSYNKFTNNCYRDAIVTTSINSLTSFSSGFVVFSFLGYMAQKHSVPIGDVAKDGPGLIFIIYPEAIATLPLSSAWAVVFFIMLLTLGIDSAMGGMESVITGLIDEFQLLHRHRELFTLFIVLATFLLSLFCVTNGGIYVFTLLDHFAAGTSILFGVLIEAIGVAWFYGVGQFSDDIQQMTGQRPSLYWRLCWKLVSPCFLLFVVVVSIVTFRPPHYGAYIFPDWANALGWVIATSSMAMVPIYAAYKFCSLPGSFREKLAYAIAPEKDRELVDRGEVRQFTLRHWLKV
T3 sequence (P30531 whole entry): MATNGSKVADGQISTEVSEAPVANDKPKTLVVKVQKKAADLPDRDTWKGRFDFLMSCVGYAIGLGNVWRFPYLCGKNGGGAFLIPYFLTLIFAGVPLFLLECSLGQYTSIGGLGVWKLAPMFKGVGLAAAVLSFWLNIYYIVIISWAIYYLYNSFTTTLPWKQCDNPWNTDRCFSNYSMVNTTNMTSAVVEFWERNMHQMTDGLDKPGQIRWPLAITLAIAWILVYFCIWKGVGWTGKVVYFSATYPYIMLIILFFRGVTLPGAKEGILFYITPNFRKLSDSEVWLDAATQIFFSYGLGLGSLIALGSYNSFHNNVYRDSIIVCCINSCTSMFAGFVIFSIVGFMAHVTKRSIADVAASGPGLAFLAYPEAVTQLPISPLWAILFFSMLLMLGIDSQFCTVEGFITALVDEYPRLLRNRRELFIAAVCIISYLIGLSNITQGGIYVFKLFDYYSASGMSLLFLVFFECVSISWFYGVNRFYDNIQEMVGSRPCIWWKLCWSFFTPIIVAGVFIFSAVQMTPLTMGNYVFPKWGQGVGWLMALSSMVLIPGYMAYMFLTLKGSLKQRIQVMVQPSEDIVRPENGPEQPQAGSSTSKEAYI
T1 sequence (P31645 whole entry, the tested form may be a part): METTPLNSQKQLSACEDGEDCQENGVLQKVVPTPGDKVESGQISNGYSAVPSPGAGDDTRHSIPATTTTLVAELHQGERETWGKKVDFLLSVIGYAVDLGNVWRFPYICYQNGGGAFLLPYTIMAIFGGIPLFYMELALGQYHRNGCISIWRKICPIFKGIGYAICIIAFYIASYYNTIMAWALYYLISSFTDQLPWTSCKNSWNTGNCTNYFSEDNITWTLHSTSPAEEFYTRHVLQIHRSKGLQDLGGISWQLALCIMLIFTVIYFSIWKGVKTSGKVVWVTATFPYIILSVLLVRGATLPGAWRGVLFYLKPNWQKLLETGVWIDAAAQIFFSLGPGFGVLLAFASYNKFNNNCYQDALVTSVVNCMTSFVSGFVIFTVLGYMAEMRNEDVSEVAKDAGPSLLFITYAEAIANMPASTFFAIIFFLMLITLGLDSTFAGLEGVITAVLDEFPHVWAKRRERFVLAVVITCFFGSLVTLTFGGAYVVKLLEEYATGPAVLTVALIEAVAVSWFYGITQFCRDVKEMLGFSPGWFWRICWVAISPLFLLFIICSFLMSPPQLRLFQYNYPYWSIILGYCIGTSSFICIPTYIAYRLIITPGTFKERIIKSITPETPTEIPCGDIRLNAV

- effect on serotonin-induced inwardly directed current ([1]; (E)-isomer, standard light): marginal blockade
Compound: c1ccc(/N=N/c2ccc([C@@H]3CCNC[C@H]3COc3ccc4c(c3)OCO4)cc2)cc1 [(E)‐azo‐paroxetine (9)]

- loss in affinity at SERT in comparison with parent compound paroxetine (factor) ([2]; basal light): 171 fold
- IC50 ([2]; λ 365 nm (PSS, mainly (Z)-isomer)): 0.76 ± 0.18 µM
- IC50 ([2]; λ basal (standard light, (E)-isomer)): 9.23 ± 3.06 µM
- loss in affinity at NET in comparison with paroxetine (factor) ([3]; listed as azo‐paroxetine): ~ 5
- loss in affinity at NET in comparison with paroxetine (factor) ([3]; listed as azo‐paroxetine (9)): 2 to 5
- reduction in IC50 by optical switching at NET ([3]; listed as azo‐paroxetine): 2 to 3 fold
- reduction in IC50 by optical switching at NET ([3]; listed as azo‐paroxetine (9)): ~threefold
- IC50 ([3]; λ 365 nm): 5.41 ± 3.32 µM
- IC50 ([3]; λ basal): 15.4 ± 4.04 µM
- loss in affinity at DAT in comparison with paroxetine (factor) ([4]; listed as azo‐paroxetine): ~ 3.7
- loss in affinity at DAT in comparison with paroxetine (factor) ([4]; listed as azo‐paroxetine (9)): 2 to 5
- effect of optical switching on inhibitory potency at DAT ([4]; listed as azo‐paroxetine): 2 to 3 fold
- effect of optical switching on inhibitory potency at DAT ([4]; listed as azo‐paroxetine (9)): 1.7 fold
- IC50 ([4]; λ 365 nm): 3.77 ± 0.79 µM
- IC50 ([4]; λ basal): 6.33 ± 2.06 µM
- improvement of affinity at rat GAT1 relative to paroxetine [5]: around two to three‐fold
- IC50 ([5]; λ 365 nm): 126 ± 20.6 µM
- IC50 ([5]; λ basal): 88.9 ± 11.8 µM
- IC50 ([6]; λ 365 nm): 107 ± 15 µM
- IC50 ([6]; λ basal): 80.8 ± 21.6 µM
- IC50 ([7]; λ 365 nm): 90.5 ± 24.4 µM
- IC50 ([7]; λ basal): 55 ± 16.4 µM
- koff ([1]; HEK293, photoequilibrated (365 nm) state, n = 5, read-out: off-rate (k off)): 0.18 ± 0.031 s⁻¹
- (Z)-isomer content in photostationary state [9]: 83%–87% and 83%
- half-life at 50 μM [10]: 156 h
Compound: c1ccc(/N=N/c2ccc([C@@H]3CCNC[C@H]3COc3ccc4c(c3)OCO4)cc2)cc1 [Azo‐paroxetine (9)]
- effect on serotonin-induced inwardly directed current ([1]; photoequilibrated (365 nm)): completely abolished the inwardly directed current
- cellular toxicity effects (trypan blue viability) ([8]; listed as azo‐paroxetine): did not find any significant toxic impact

- IC50 ([5]; λ basal): 264 ± 140 µM
- IC50 ([6]; λ basal): 122 ± 81 µM
- IC50 ([7]; λ basal): 51 ± 3.7 µM
Compound: Fc1ccc([C@@H]2CCNC[C@H]2COc2ccc3c(c2)OCO3)cc1 [Paroxetine, paroxetine, reference compound]
- Ki [11]: 0.156 ± 0.029 µM

Compound: azobenzene [reference compound]
- inhibitory effect on [3H]5-HT uptake at human SERT ([2]; concentrations up to 1 mM, basal and 365 nm): could not really observe any significant inhibitory effects
- inhibition of GABA uptake at rat GAT1 ([5]; (E)-configuration): comparable to the value of the human GAT1
- inhibition of GABA uptake at human GAT1 ([6]; (E)-configuration, up to 1 mM): up to 40%
- inhibition of GABA uptake at human GAT3 ([7]; up to 1 mM): more than 60%
- cellular toxicity effects (trypan blue viability) [8]: neither azo‐paroxetine (9) nor azobenzene
